Measured values as given in patent US10228378B2, “Diagnostic and therapeutic methods and products related to anxiety disorders” (The University of Vermont and State Agricultural College, priority 2011, dated 2019).
“And” between values parts separate entries of the source, which are not always exact repeats. Equal entries are not always repeated. “Also recorded” adds a separate entry of the source. No end group written: not given here.

Legend:
[1] = tested on: ADCYAP1 transcripts; assay: Quantitative PCR of ADCYAP1 transcripts in BNST of ovarectomized female rats after estradiol implants; format: in vivo, rat; settings: OVX female rats, 21-day continuous release pellets, vs control implants
Description: (§1) To establish the relationship between PACAP/PAC1 receptors and estrogen in a validated model of sex hormone regulation, estrogen-induced changes in ADCYAP1 and ADCYAP1R1 transcripts in the bed nucleus of stria terminalis (BNST) in female rats was examined. The BNST is a component of the extended amygdala that is subject to significant gonadal hormonal control. In rodents, it is critical for emotional behavior, mediating stress responses and the light-enhanced startle response. Quantitative PCR was performed (Hammack et al., Psychoneuroendocrinology 34, 833-43 (2009); Girard et al., J Neurochem 99(2): 499-513 (2006); Braas et al., Peptides September 28(9):1856-70 (2007)). Rats were implanted with 21-day continuous release pellets for delivery of estrogen. After rat euthanasia, the different brain regions were quickly dissected and frozen on dry ice. The tissues were homogenized in Stat-60 total RNA/mRNA isolation reagent (Tel-Test “B”, Friendswood, Tex.). […] Real-time quantitative PCR methods and oligonucleotide primers were exactly as described previously. The melting profiles for amplified DNA fragments were performed to verify unique product amplification in the quantitative PCR assays. […]

[2] = tested on: ADCYAP1R1 transcripts; assay: Quantitative PCR of ADCYAP1R1 transcripts in BNST of ovarectomized female rats after estradiol implants; format: in vivo, rat; settings: OVX female rats, 21-day continuous release pellets, vs control implants
Description: as §1

[3] = tested on: Sprague-Dawley rats; assay: Elevated plus maze after acute BNST PACAP38 infusion; format: in vivo, rat; settings: BNST infusion 1 μg/0.5 μl vs vehicle
Description: For acute infusion studies, rats were anesthetized with isoflurane vapor and secured in a stereotaxic apparatus. After skin incision, the skull was exposed and four screws were inserted to provide skullcap stability. Two stainless steel cannulae (26 gauge, Plastics One, Roanoke, Va.) were lowered at a 20 degree angle just above the anterolateral bed nucleus of the stria terminalis (BNST), from bregma in mm; AP=−0.3, ML=±3.8 and DV=−5.3 from the surface of the dura. A skullcap was created with dental cement to hold the cannulae in place. […]
(§2) A plus maze of black painted wood and elevated 74 cm from the floor consisted of two opposing open and two opposing closed arms (each arm 60 cm long and 9 cm wide), which extended perpendicularly from a central square platform (9×9 cm). […] The sessions were captured digitally, and the time spent in the open and closed arms and the total number of crosses into the open arms were scored. […]
To further characterize the behavioral consequences of BNST PACAP38 infusion, rats were implanted with bilateral cannulae targeted at the BNST. […] Consistent with an anxiogenic effect of BNST PACAP on baseline acoustic startle responding, BNST PACAP38 infusion was anxiogenic on the elevated-plus maze as measured by open arm time (FIG. 12A, df=8, t=3.3, p=0.01).

[4] = Body weight after acute BNST PACAP38 infusion; format: in vivo, rat; settings: 24 hours after BNST infusion
Description: For acute infusion studies, rats were anesthetized with isoflurane vapor and secured in a stereotaxic apparatus. After skin incision, the skull was exposed and four screws were inserted to provide skullcap stability. Two stainless steel cannulae (26 gauge, Plastics One, Roanoke, Va.) were lowered at a 20 degree angle just above the anterolateral bed nucleus of the stria terminalis (BNST), from bregma in mm; AP=−0.3, ML=±3.8 and DV=−5.3 from the surface of the dura. A skullcap was created with dental cement to hold the cannulae in place. One week after cannulation, the rats were acutely infused bilaterally into the BNST with PACAP38 (American Peptide Co., Sunnyvale, Calif.; 0.1, 0.5 or 1 μg in 0.5 μl) or saline/bovine serum albumin (BSA) vehicle; the infusion cannulae were left in place for 1 min before removal.
To further characterize the behavioral consequences of BNST PACAP38 infusion, rats were implanted with bilateral cannulae targeted at the BNST. One week following implantation, rats received BNST infusions of PACAP38 (1 μg/0.5 μl) or vehicle, and were tested for anxiety-like responses. Consistent with an anxiogenic effect of BNST PACAP on baseline acoustic startle responding, BNST PACAP38 infusion was anxiogenic on the elevated-plus maze as measured by open arm time (FIG. 12A, df=8, t=3.3, p=0.01).

[5] = tested on: Sprague-Dawley rats; assay: Elevated plus-maze after chronic BNST PACAP(6-38) infusion during repeated variate stress; format: in vivo, rat
Protocol: Similar procedures were followed for chronic infusions. Once the BNST cannulae (Plastics One, Roanoke, Va.; No. 328OP/SPC) and skullcap were in place, the cannulae were attached to a single bifurcation connector (Plastics One, Roanoke, Va.; No. 21y) using 3 mm catheter tubing (Alzet, Cupertino, Calif.: OC 1.14 mm, ID 0.69 mm). The bifurcation connector was attached to 6.7 cm of catheter tubing attached to a mini-osmotic pump (Alzet, Cupertino, Calif.; No. 2002, 200 μl volume, 0.5 μl/h) containing either antagonist PACAP(6-38) (American Peptide Co., Sunnyvale, Calif.; 75 μM) or vehicle (0.05% BSA in saline). Long term PACAP(6-38) stability at 37° C. was assessed separately by daily aliquot removal for intact and amidated peptide radioimmunoassays. Peptide loss was 4%/day; final minipump PACAP(6-38) concentration at the end of the study was approximately 40 μM. […] The rats were returned to their home cages for 6 day postsurgical recovery; all rats were monitored for food/water intake and weighed daily. […]
as §2

[6] = tested on: Sprague-Dawley rats; assay: Novel object exploration test after chronic BNST PACAP(6-38) infusion during repeated variate stress; format: in vivo, rat; settings: for effect on stress induced anxiety-related responses, novel object test: chronic BNST infusion, stressed rats
Protocol: (§3) Similar procedures were followed for chronic infusions. Once the BNST cannulae (Plastics One, Roanoke, Va.; No. 328OP/SPC) and skullcap were in place, the cannulae were attached to a single bifurcation connector (Plastics One, Roanoke, Va.; No. 21y) using 3 mm catheter tubing (Alzet, Cupertino, Calif.: OC 1.14 mm, ID 0.69 mm). The bifurcation connector was attached to 6.7 cm of catheter tubing attached to a mini-osmotic pump (Alzet, Cupertino, Calif.; No. 2002, 200 μl volume, 0.5 μl/h) containing either antagonist PACAP(6-38) (American Peptide Co., Sunnyvale, Calif.; 75 μM) or vehicle (0.05% BSA in saline). Long term PACAP(6-38) stability at 37° C. was assessed separately by daily aliquot removal for intact and amidated peptide radioimmunoassays. Peptide loss was 4%/day; final minipump PACAP(6-38) concentration at the end of the study was approximately 40 μM. All catheters were filled with vehicle to delay antagonist infusion into the BNST before the repeated variate stress procedure. The minipumps were primed according to manufacturer's instructions and secured subcutaneously in the interscapular space. The rats were returned to their home cages for 6 day postsurgical recovery; all rats were monitored for food/water intake and weighed daily.
Following acclimation or postsurgery recovery, each animal was randomly assigned to either a control or chronically stressed group. Control group animals remained in their home cages until euthanasia. […]
To determine whether BNST PACAP receptor signaling mediates the behavioral consequences of repeated stress, osmotic minipumps were attached to bilateral indwelling cannulae to chronically infuse the BNST with PACAP(6-38), a PAC1 receptor antagonist, during the seven day repeated variate stress procedure (see above, FIG. 13A). Animal weight and food intake were monitored daily during the entire duration of the experiment, and the animals were evaluated on the elevated plus-maze and novel-object exploration tests 24-48 hours after the last stressor exposure. […]

[7] = Body weight during chronic BNST PACAP(6-38) infusion and repeated variate stress; format: in vivo, rat
Protocol: as §3, with “The minipumps were primed according to manufacturer's instructions and secured subcutaneously in the interscapular space.” left out, “daily. […]” for “daily.”
Weight data were analyzed using a 2×2×7 mixed ANOVA with stress and antagonist treatment as between subjects variables and percent weight change during the stress period as within subjects variables. […]

[8] = Long term PACAP(6-38) stability at 37° C. by radioimmunoassay; format: physicochemical
Protocol: as §3

[9] = chronic BNST infusion by minipump (75 μM, 0.5 μl/h), stressed and non-stressed rats

Compound: C[C@]12CC[C@@H]3c4ccc(O)cc4CC[C@H]3[C@@H]1CC[C@@H]2O [estradiol]
- increase of ADCYAP1 transcripts, dorsal BNST [1]: 2.1 fold
- increase of ADCYAP1 transcripts, ventral BNST [1]: 3.4 fold
- increase of ADCYAP1R1 mRNA, dorsal BNST [2]: 1.5 fold and 1.6 fold

Compound: PACAP38: 38-amino acid peptide form of PACAP (American Peptide Co.) (HSDGIFTDSYSRYRKQMAVKKYLAAVLGKRYKQRVKNK; ends and bridges not checked)
- anxiety-like behavior on elevated-plus maze as measured by open arm time [3]: anxiogenic; also recorded: decreased open arm times
- locomotor activity as measured by total number of arm entries [3]: not affected; also recorded: not changed
- weight loss compared to vehicle-infused rats [4]: significantly more weight loss
- weight loss ([4]; compared to vehicle controls): approximately 8 % of body weight

Compound: Phe-Thr-Asp-Ser-Tyr-Ser-Arg-Tyr-Arg-Lys-Gln-Met-Ala-Val-Lys-Lys-Tyr-Leu-Ala-Ala-Val-Leu-Gly-Lys-Arg-Tyr-Lys-Gln-Arg-Val-Lys-Asn-Lys (FTDSYSRYRKQMAVKKYLAAVLGKRYKQRVKNK) [PACAP(6-38)]
- anxiety-like behavior on elevated plus maze [5, 9]: anxiolytic
- effect on stress induced anxiety-related responses, elevated plus-maze ([5]; chronic BNST infusion, stressed rats): attenuated the stress induced anxiety-related responses
- anxiety-like behavior on novel object test [6, 9]: anxiolytic
- effect on stress induced anxiety-related responses, novel object test [6]: reverse the anxiogenic effect of stress
- effect on stress induced anxiety-related responses, novel object test ([6]; listed as PACAP receptor antagonist): attenuated the stress induced anxiety-related responses
- effect on body weight, non-stressed rats ([7]; chronic BNST infusion, no stress): no apparent effects; also recorded: gained weight steadily
- effect on weight gain, stressed rats ([7]; continuous BNST infusion during seven day repeated variate stress): blocked the stress-induced changes in weight gain; also recorded: gained weight comparable to controls
- Peptide loss ([8]; intact and amidated peptide radioimmunoassays): 4 %/day
- final minipump concentration at the end of the study ([8]; start 75 μM): approximately 40 μM
